Measurements published in US5399729A, “Esterified alkoxylated polyol fat substitutes having high primary ester content” (Arco Chemical Technology, L.P., priority 1993, dated 1995).

System: porcine pancreatic lipase
Assay: Porcine pancreatic lipase-catalyzed hydrolysis (lipase titrimetric assay, automatic pH stat method)
Type: in vitro ADME
Conditions: pH 8.5
Protocol: To measure the relative rate of enzyme-catalyzed hydrolysis for the esterified propoxylated glycerin, the composition was challenged by porcine pancreatic lipase. Test emulsions were prepared using the composition according to the procedures described by Naher, "Lipase Titrimetric Assay", in Methods in Enzymatic Analysis, Vol. 2, 2nd Eng. ed., p. 814 (1974), except that the composition was not neutralized prior to generation of the emulsion. A 20 mL sample of the composition was utilized. The emulsions were generated in a Waring blender equipped with a stainless steel jacketed container (300 mL capacity). The jacketed blender container was filled with an ice-in-water suspension to cool the emulsion during preparation. Hydrolysis of the composition at pH 8.50 and two enzyme levels (200 and 4000 units/assay) was monitored via the automatic pH stat method described by Naber using a Radiometic Copenhagen RTS822 recording titration system (equipped with a PHM84 pH meter and a REA 270 derivatization unit) and a 0.1N sodium hydroxide solution. The enzymatic reaction was maintained at 37° C. under a nitrogen atmosphere.
The results obtained for the esterified alkoxylated polyol obtained as described hereinabove and for olive oil and soybean oil controls are shown in Table I. The table also provides comparative data for a conventional esterified alkoxylated polyol made by reacting 8 equivalents of propylene oxide with one equivalent of glycerin under basic conditions and esterifying with soybean fatty acids; this conventional fat substitute has a low (<5%) proportion of primary ester linkages. […] This finding was surprising in view of U.S. Pat. Nos. 5,059,443 and 5,077,073, which indicate that the rate of lipase-catalyzed hydrolysis is substantially independent of the structure of the ester linkages in an esterified alkoxylated polyol fat substitute.

Soybean Oil
Hydrolysis Rate (#μeq/min for an equivalent amount of enzyme): 3.62 μeq/min
Hydrolyzability (relative to olive oil): 0.738
Normalized Hydrolyzability (hydrolyzability compared on an equal molar basis, taking into account the concentration of ester linkages): 0.723
